# Patent US20190233884A1 (University of Southern California, priority 2016, published 2019)
# Tested on: patients with refractory metastatic colorectal cancer (mCRC)
# Experiment: TAS-102-related toxicity (neutropenia, leukopenia, anemia, anorexia, nausea, diarrhea; CTCAE grade) in training/evaluation and testing/validation cohorts, association with SNPs
# Format: in vivo, human
# Settings: for frequency of Gr3≤ neutropenia: evaluation cohort; for incidence of Gr3≤ neutropenia: validation cohort
# Description: Such effects include but are not limited to febrile neutropenia, leukopenia, stomatitis, neutropenia, hand-foot syndrome, cardiac ischemia, thrombocytopenia, increase in alanine aminotransferase level, increase in aspartate aminotransferase level, increase in total bilirubin, increase in alkaline phosphatase level, increase in creatinine level, anemia, anorexia, nausea, vomiting, decreased appetite, fatigue, abdominal pain, fever, asthenia, and diarrhea. […] “Subchronic” toxicity is the ability of a drug substance to cause harmful or adverse effects for […] but less than the lifetime of the exposed organism. “Chronic” toxicity is the ability of a drug substance or combination therapy to cause harmful effects over an extended period, usually upon repeated or continuous exposure, sometimes lasting for the entire life of the exposed organism. Adverse events are classified and graded by severity. Grade 1 adverse events: mild; asymptomatic or mild symptoms; clinical or diagnostic observations only; intervention not indicated. Grade 2 adverse events: moderate; minimal, local or noninvasive intervention indicated; limiting age-appropriate instrumental activities of daily living (ADL). Grade 3 adverse events: severe or medically significant but not immediately life-threatening; hospitalization or prolongation of hospitalization indicated; disabling; limiting self care activities of daily living. Grade 4 adverse events: life-threatening consequences; urgent intervention indicated. Grade 5 adverse event: death related to AE (Department of Health and Human Services, National Institutes of Health, National Cancer Institute. Common terminology criteria for adverse events (CTCAE) v4.03. 2010).
# The primary endpoint in this study was progression-free survival (PFS), and the secondary endpoints were overall survival (OS) and disease control rate (DCR). PFS was calculated from the date of starting treatment to the first observation of disease progression or death from any cause. If a patient had no disease progression or death, PFS was censored at the date of last follow up. OS was calculated from the date of starting treatment until the date of death from any cause or the date of the last follow-up, at which point OS was censored. The disease control rate (DCR) was defined as the proportion of patients who achieved a stable disease (SD) or […] according to RECISTv1.1. Chi-square test was used to examine the difference in baseline patient characteristics among the three cohorts. Allelic distribution of all SNPs by ethnicity for deviation from Hardy-Weinberg equilibrium and the allelic frequencies of SNPs were tested using the Chi-square tests with one degree of freedom. The associations between candidate SNPs and disease control, and toxicities were examined using contingency tables and Fisher's exact test. The associations of SNPs with PFS and OS were analysed using Kaplan-Meier curves and the log-rank test. Because the true mode of inheritance of candidate SNPs was not established yet, a codominant or dominant genetic model if appropriate was considered.
# All patients underwent the treatment in salvage-line setting. […] In all patients, adverse events were graded according to the Common Terminology Criteria for Adverse Events, version 4.0.
# The primary endpoint in this study was progression-free survival (PFS), and the secondary endpoints were overall survival (OS) and disease control rate (DCR). […] Data of patients without disease progression or death were censored at the date of last follow up. OS was calculated from the date of starting treatment until the date of death from any cause. In patients who were lost to follow-up, data were censored at the date of last follow up. The disease control rate (DCR) was defined as the proportion of patients who achieved a stable disease (SD) or […] according to RECIST v1.1.
substance,measurement,setting,value
Trifluridine/tipiracil [TAS-102],frequency of Gr3≤ neutropenia,ATM rs609429 C/C (n=4/14),29%
same,frequency of Gr3≤ neutropenia,ATM rs609429 any G allele (n=16/38),42%
same,incidence of grade 2≤ neutropenia,training cohort,61.5%
same,incidence of grade 3≤ neutropenia,training cohort,38.5%
same,frequency of Gr2< neutropenia,"training cohort, hENT1 rs760370 A/A (n=12/27)",44%
same,frequency of Gr2< neutropenia,"training cohort, hENT1 rs760370 any G allele (n=20/25)",80%
same,treatment delay caused by neutropenia,"training cohort, share of treatment delays (22/24)",91.8%
same,incidence of Gr3≤ neutropenia,ATM rs609429 C/C (n=13/51),26%
same,incidence of Gr3≤ neutropenia,ATM rs609429 any G allele (n=34/78),44%
